Results taken from PubChem BioAssay AID2784 (Sanford-Burnham Center for Chemical Genomics, 2010).
The source made the active and inactive calls. The rule behind the calls is not given here.

Target: Apelin receptor (Homo sapiens) (UniProt P35414)
Test: APJ antagonist potency in beta-arrestin recruitment, dose response, cell-based, luminescence, uHTS hits (AID 2784)
Details: antagonist mode

Apelin receptor (Homo sapiens), sequence (P35414 whole entry, looked up): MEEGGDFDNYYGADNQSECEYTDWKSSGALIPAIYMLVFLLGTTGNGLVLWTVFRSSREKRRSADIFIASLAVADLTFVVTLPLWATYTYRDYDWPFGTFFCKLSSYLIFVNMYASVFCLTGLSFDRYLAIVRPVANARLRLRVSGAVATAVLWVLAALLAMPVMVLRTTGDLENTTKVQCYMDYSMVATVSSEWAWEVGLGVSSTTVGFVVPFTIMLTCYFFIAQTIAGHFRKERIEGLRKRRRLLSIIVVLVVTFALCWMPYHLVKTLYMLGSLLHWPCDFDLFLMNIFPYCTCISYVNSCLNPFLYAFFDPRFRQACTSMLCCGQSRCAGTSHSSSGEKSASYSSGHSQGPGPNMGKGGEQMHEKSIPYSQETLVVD

Row | SMILES | IC50
1 | O=C(O)c1ccccc1N=Nc1c(O)[nH]c2ccc([N+](=O)[O-])cc12 | > 40 µM (inactive)
2 | CC1=NN(C(N)=S)C(=O)C1N=Nc1ccc([N+](=O)[O-])cc1 (configuration not stated) | > 40 µM (inactive)
3 | CN(/N=C/c1cc([N+](=O)[O-])ccc1O)c1ccccc1 | inactive
4 | CC1=Nc2ccccc2/C1=C/c1sc(=N)n(-c2nccs2)c1O | > 40 µM (inactive)
5 | O=C(CCCC(=O)Nc1cccc(Br)c1)N/N=C/c1cc([N+](=O)[O-])ccc1O | inactive
6 | O=[N+]([O-])c1ccc(O)c(/C=N/Nc2ccc(Cl)nn2)c1 | 4.18 µM
7 | CCOC(=O)C1=NNC(C(=O)c2ccc(Cl)cc2)C1c1ccccc1 (configuration not stated) | 10.6 µM
8 | Cn1c(O)c(N=Nc2nc(-c3ccccc3)cs2)c2ccccc21 | > 40 µM (inactive)
9 | CCOC(=O)C1=C(C)NC2=C(C(=O)CC(c3cccs3)C2)C1c1cccs1 (configuration not stated) | inactive
10 | Cc1ccc(NS(=O)(=O)c2cc([N+](=O)[O-])ccc2N/N=C/c2sc(N3CCOCC3)nc2-c2ccccc2)c(C)c1 | > 40 µM (inactive)
11 | Cc1ncc(CO)c(/C=N/Nc2ccc(C(F)(F)F)cn2)c1O | 9.42 µM

More lines, now with the values ahead:

Row | IC50 | SMILES
12 | > 40 µM (inactive) | CC1=NN(c2ccc(C)cc2)C(=O)/C1=C/c1ccc(-c2cc([N+](=O)[O-])ccc2O)o1
13 | > 40 µM (inactive) | COc1ccc(NS(=O)(=O)c2cc([N+](=O)[O-])ccc2N/N=C\c2c(C)[nH]c3ccccc23)cc1
14 | > 40 µM (inactive) | CCOCCOC(=O)C1=C(C)NC2=C(C(=O)CC(c3cccs3)C2)C1c1ccsc1 (configuration not stated)
15 | 7.27 µM | COC(=O)C1NN=C(C(=O)c2ccc(Cl)cc2)C1c1ccc(OC)cc1 (configuration not stated)
16 | > 40 µM (inactive) | COc1ccc2c(c1)C(=O)[C@@H](O)[C@H](c1ccc(OC)c(Br)c1)O2
17 | 3.07 µM | COc1ccc2c(c1)C(=O)[C@H](O)[C@@H](c1ccc(OC)c(Br)c1)O2
